Results published in patent US20230021448A1, “COMPOUNDS AND COMPOSITIONS FOR TREATING CONDITIONS ASSOCIATED WITH STING ACTIVITY” (IFM Due, Inc., priority 2019, published 2023).

Molecular target: T1, STING (Homo sapiens, UniProt Q86WV6, G230A/H232R/R293Q/R71H)
T1 construct: host or cells: THP1-Dual KO-IFNAR2 cells
Assay: STING reporter assay: luciferase reporter activity in THP1-Dual KO-IFNAR2 cells stimulated with 2'3'cGAMP
Type: cell-based
Conditions: 2′3′cGAMP 15 μM final, 24h, read-out: hSTING: EC50
Protocol: STING pathway activation by the compounds described herein was measured using THIP1-Dua1™ cells (KO-IFNAR2).
TTIP1-Dual™ KO-IFNAR2 Cells (obtained from invivogen) were maintained in RPMI, 10% FCS, 5 ml P/S, 2 mM L-glut, 10 mM Hepes, and 1 mM sodium pyruvate. Compounds were spotted in empty 384 well tissue culture plates (Greiner 781182) by Echo for a final concentration of 0.0017-100 μM. Cells were plated into the TC plates at 40 μL per well, 2×10E6 cells/mL. For activation with STING ligand, 2′3′cGAMP (MW 718.38, obtained from Invivogen), was prepared in Optimem media.
The following solutions were prepared for each 1×384 plate: • Solution A: 2 mL Optimem with one of the following stimuli: • […] • Solution B: 2 mL Optimem with 60 μL Lipofectamine 2000->Incubate 5 min at RT
2 mL of solution A and 2 ml Solution B was mixed and incubated for 20 min at room temperature (RT). 20 uL of transfection solution (A+B) was added on top of the plated cells, with a final 2′3′cGAMP concentration of 15 μM. The plates were then centrifuged immediately at 340 g for 1 minute, after which they were incubated at 37° C., 5% C02, >98% humidity for 24h. Luciferase reporter activity was then measured. EC50 values were calculated by using standard methods known in the art.
Luciferase reporter assay: 10 μL of supernatant from the assay was transferred to white 384-plate with flat bottom and squared wells. One pouch of QUANTI-Luc™ Plus was dissolved in 25 mL of water. 100 μL of QLC Stabilizer per 25 mL of QUANTI-Luc™ Plus solution was added. 50 μL of QUANTI-Luc™ Plus/QLC solution per well was then added. Luminescence was measured on a Platereader (e.g., Spectramax I3X (Molecular Devices GF3637001)).
Luciferase reporter activity was then measured. EC50 values were calculated by using standard methods known in the art.

T1 sequence (Q86WV6 whole entry R71H/G230A/H232R/R293Q): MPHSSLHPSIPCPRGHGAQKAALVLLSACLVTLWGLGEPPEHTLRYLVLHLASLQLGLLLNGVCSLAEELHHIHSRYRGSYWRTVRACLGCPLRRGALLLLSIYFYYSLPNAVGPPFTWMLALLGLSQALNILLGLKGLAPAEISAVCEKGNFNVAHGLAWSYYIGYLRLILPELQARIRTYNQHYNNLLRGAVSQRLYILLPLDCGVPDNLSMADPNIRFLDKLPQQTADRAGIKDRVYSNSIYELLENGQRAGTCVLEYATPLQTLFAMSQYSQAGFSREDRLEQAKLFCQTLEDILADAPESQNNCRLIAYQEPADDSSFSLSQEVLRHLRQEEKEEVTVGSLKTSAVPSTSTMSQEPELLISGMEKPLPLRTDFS

Structure (SMILES) | EC50 [nM]
CC1(CNC(=O)C(=O)Nc2c[nH]c3cc(F)c(F)cc23)CCC(F)(F)CC1 [Compound 153, N1-((4,4-difluoro-1-methylcyclohexyl)methyl)-N2-(5,6-difluoro-1H-indol-3-yl)oxalamide] | 1000 to 5000
Cn1cc(NC(=O)C(=O)NCc2ccc(C(F)(F)F)c(Cl)c2)c2cc(F)c(F)cc21 [Compound 170] | 5000 to 100000
O=C(Nc1c[nH]c2cc(F)c(F)cc12)C(=O)NC1CCC(OCC(F)F)CC1 (centres unmarked) [Compound 178] | 200 to 1000
O=C(NCCC1CCC(F)(F)CC1)C(=O)Nc1c[nH]c2ccccc12 [Compound 179] | 1000 to 5000
O=C(Nc1ccc(C(F)(F)F)cc1)C(=O)Nc1c[nH]c2ccc(F)c(F)c12 [Compound 180] | 200 to 1000
O=C(Nc1ccc(C(F)(F)F)c(Cl)c1)C(=O)Nc1c[nH]c2cc(F)c(F)cc12 [Compound 181] | 200 to 1000
C#Cc1ccc(NC(=O)C(=O)Nc2c[nH]c3cc(F)c(F)cc23)cc1 [Compound 182] | 200 to 1000
Cc1cc(NC(=O)C(=O)Nc2c[nH]c3ccccc23)cc(C(F)(F)F)c1 [Compound 183] | 200 to 1000
O=C(Nc1ccc(C(F)(F)F)cc1)C(=O)Nc1c[nH]c2ccc(F)cc12 [Compound 184] | 200 to 1000
CC[C@H]1CC[C@@H](NC(=O)C(=O)Nc2c[nH]c3cc(F)c(F)cc23)CC1 [Compound 185] | 200 to 1000
O=C(Nc1c[nH]c2cc(F)c(F)cc12)C(=O)N[C@H]1CC[C@@H](OCC(F)F)CC1 [Compound 187] | 1000 to 5000
O=C(NCCC12C[C@H]3C[C@@H](C1)C[C@@H](C2)C3)C(=O)Nc1c[nH]c2cc(F)c(F)cc12 [Compound 188] | 200 to 1000
O=C(NCC1CC12CCCCC2)C(=O)Nc1c[nH]c2cc(F)c(F)cc12 (centres unmarked) [Compound 189] | 200 to 1000
O=C(NCCC1CC2CCC1C2)C(=O)Nc1c[nH]c2cc(F)c(F)cc12 (centres unmarked) [Compound 190] | 200 to 1000
CC(C)(C)C1CCC(NC(=O)C(=O)Nc2c[nH]c3cc(F)c(F)cc23)CC1 (centres unmarked) [Compound 191] | 200 to 1000
O=C(Nc1c[nH]c2cc(F)c(F)cc12)C(=O)N1CCCC(Oc2ccc(C(F)(F)F)cc2)C1 (centres unmarked) [Compound 195] | 200 to 1000
Cc1ccc(O[C@H]2C[C@H](NC(=O)C(=O)Nc3c[nH]c4cc(F)c(F)cc34)C2)cn1 [Compound 196] | 200 to 1000
O=C(Nc1c[nH]c2cc(F)c(F)cc12)C(=O)N[C@H]1C[C@H](Nc2ccc(C(F)(F)F)cn2)C1 [Compound 197] | 200 to 1000
O=C(Nc1c[nH]c2cc(F)c(F)cc12)C(=O)N[C@H]1C[C@@H](Oc2ccc(C(F)(F)F)nc2)C1 [Compound 198] | 200 to 1000
O=C(NCCCOc1ccc(C(F)(F)F)nc1)C(=O)Nc1c[nH]c2cc(F)c(F)cc12 [Compound 200] | 200 to 1000
O=C(Nc1c[nH]c2cc(F)c(F)cc12)C(=O)N[C@H]1C[C@H](Oc2cncc(C(F)(F)F)c2)C1 [Compound 201] | 200 to 1000

More lines, now with the values ahead:

EC50 [nM] | Structure (SMILES)
200 to 1000 | O=C(NCCOc1ccc(C(F)(F)F)cc1)C(=O)Nc1c[nH]c2cc(F)c(F)cc12 [Compound 149, N1-(5,6-difluoro-1H-indol-3-yl)-N2-(2-(4-(trifluoromethyl)phenoxy)ethyl) oxalamide]
200 to 1000 | O=C(NCC1CCCC(F)(F)C1)C(=O)Nc1c[nH]c2cc(F)c(F)cc12 (centres unmarked) [Compound 150, N1-(5,6-difluoro-1H-indol-3-yl)-N2-((3,3-difluorocyclohexyl)methyl)oxalamide]
200 to 1000 | O=C(NCC1CCC(F)(F)CC1)C(=O)Nc1c[nH]c2cc(F)c(F)cc12 [Compound 151, N1-(5,6-difluoro-1H-indol-3-yl)-N2-((4,4-difluorocyclohexyl)methyl) oxalamide]
200 to 1000 | O=C(NCCC1(C(F)(F)F)CC1)C(=O)Nc1c[nH]c2cc(F)c(F)cc12 [Compound 152, N1-(5,6-difluoro-1H-indol-3-yl)-N2-(2-(1-(trifluoromethyl)cyclopropyl)ethyl)oxalamide]
200 to 1000 | Cc1cc(F)c(Cl)cc1NC(=O)C(=O)Nc1c[nH]c2cc(F)c(F)cc12 [Compound 154, N1-(5-chloro-4-fluoro-2-methylphenyl)-N2-(5,6-difluoro-1H-indol-3-yl)oxalamide]
200 to 1000 | O=C(NCC(F)(F)c1ccccc1)C(=O)Nc1c[nH]c2cc(F)c(F)cc12 [Compound 155, N1-(5,6-difluoro-1H-indol-3-yl)-N2-(2,2-difluoro-2-phenylethyl) oxalamide]
200 to 1000 | CC(NC(=O)C(=O)Nc1c[nH]c2cc(F)c(F)cc12)c1ccc(C(F)(F)F)cc1 (centres unmarked) [Compound 156, N1-(5,6-difluoro-1H-indol-3-yl)-N2-(1-(4-(trifluoromethyl)phenyl)ethyl) oxalamide]
200 to 1000 | O=C(Nc1ccc(OCC(F)(F)F)nc1)C(=O)Nc1c[nH]c2cc(F)c(F)cc12 [Compound 157, N1-(5,6-difluoro-1H-indol-3-yl)-N2-(6-(2,2,2-trifluoroethoxy)pyridin-3-yl) oxalamide]
200 to 1000 | CC(CNC(=O)C(=O)Nc1c[nH]c2cc(F)c(F)cc12)Oc1ccc(C(F)(F)F)cc1 (centres unmarked) [Compound 158, N1-(5,6-difluoro-1H-indol-3-yl)-N2-(2-(4-(trifluoromethyl)phenoxy)propyl) oxalamide]
200 to 1000 | COc1ccc(CNC(=O)C(=O)Nc2c[nH]c3cc(F)c(F)cc23)cc1C(F)(F)F [Compound 159, N1-(5,6-difluoro-1H-indol-3-yl)-N2-(4-methoxy-3-(trifluoromethyl)benzyl)oxalamide]
200 to 1000 | O=C(NCc1ccc(Cl)cc1C(F)(F)F)C(=O)Nc1c[nH]c2cc(F)c(F)cc12 [Compound 160, N1-(4-chloro-2-(trifluoromethyl)benzyl)-N2-(5,6-difluoro-1H-indol-3-yl)oxalamide]
200 to 1000 | COc1ccc(CNC(=O)C(=O)Nc2c[nH]c3cc(F)c(F)cc23)cc1Cl [Compound 161, N1-(3-chloro-4-methoxybenzyl) N2-(5,6-difluoro-1H-indol-3-yl)oxalamide]
200 to 1000 | O=C(NCc1cccc(N2CCCCC2)c1)C(=O)Nc1c[nH]c2cc(F)c(F)cc12 [Compound 162, N1-(5,6-difluoro-1H-indol-3-yl)-N2-(3-(piperidin-1-yl)benzyl) oxalamide]
200 to 1000 | O=C(NCc1cccc(C(F)(F)F)c1F)C(=O)Nc1c[nH]c2cc(F)c(F)cc12 [Compound 163, N1-(5,6-difluoro-1H-indol-3-yl)-N2-(2-fluoro-3-(trifluoromethyl)benzyl)oxalamide]
40 to 200 | O=C(NCc1ccc(Cl)c(C(F)(F)F)c1)C(=O)Nc1c[nH]c2cc(F)c(F)cc12 [Compound 164, N1-(4-chloro-3-(trifluoromethyl)benzyl)-N2-(5,6-difluoro-1H-indol-3-yl)oxalamide]
40 to 200 | O=C(NCc1ccccc1C(F)(F)F)C(=O)Nc1c[nH]c2cc(F)c(F)cc12 [Compound 165, N1-(5,6-difluoro-1H-indol-3-yl)-N2-(2-(trifluoromethyl)benzyl)oxalamide]
200 to 1000 | O=C(NCc1cccc(OC(F)(F)F)c1)C(=O)Nc1c[nH]c2cc(F)c(F)cc12 [Compound 166, N1-(5,6-difluoro-1H-indol-3-yl)-N2-(3-(trifluoromethoxy)benzyl)oxalamide]
200 to 1000 | Cc1c(NC(=O)C(=O)Nc2c[nH]c3cc(F)c(F)cc23)cccc1C(F)(F)F [Compound 167, N1-(5,6-difluoro-1H-indol-3-yl)-N2-(2-methyl-3-(trifluoromethyl)phenyl)oxalamide]
200 to 1000 | Cc1ccc(CNC(=O)C(=O)Nc2c[nH]c3ccc(-c4cnn(C(C)C)c4)cc23)cc1C(F)(F)F [Compound 168]
200 to 1000 | O=C(Nc1c[nH]c2cc(F)c(F)cc12)C(=O)NC1CCN(c2ccccc2)C1 (centres unmarked) [Compound 169]
200 to 1000 | O=C(NCc1ccc(C(F)(F)F)c(Cl)c1)C(=O)Nc1c[nH]c2ccccc12 [Compound 171]
200 to 1000 | O=C(Nc1ccc(C(F)(F)F)cc1)C(=O)Nc1c[nH]c2cc(F)ccc12 [Compound 172]
200 to 1000 | O=C(NCc1cnc(C(F)(F)F)c(Cl)c1)C(=O)Nc1c[nH]c2cc(F)c(F)cc12 [Compound 173]
200 to 1000 | O=C(Nc1c[nH]c2cc(F)c(F)cc12)C(=O)N[C@H]1CC[C@H](OCC(F)F)CC1 [Compound 174]
200 to 1000 | O=C(Nc1ccc(C2CCC(F)(F)CC2)nc1)C(=O)Nc1c[nH]c2cc(F)c(F)cc12 [Compound 175]
200 to 1000 | O=C(NC[C@@H]1CC12CCCCC2)C(=O)Nc1c[nH]c2cc(F)c(F)cc12 [Compound 176]
40 to 200 | O=C(NC[C@H]1CC12CCCCC2)C(=O)Nc1c[nH]c2cc(F)c(F)cc12 [Compound 177]
40 to 200 | CC[C@H]1CC[C@H](NC(=O)C(=O)Nc2c[nH]c3cc(F)c(F)cc23)CC1 [Compound 186]
40 to 200 | Cc1ccc(O[C@H]2C[C@H](NC(=O)C(=O)Nc3c[nH]c4cc(F)c(F)cc34)C2)nc1 [Compound 199]
